target: ADAMTS4 (Homo sapiens (Human), UniProt O75173); assay: Selectivity assay for ADAMTS-7 modulators: ADAMTS4 (FRET substrate); format: biochemical; conditions: ADAMTS4 (R&D 4307-AD) 50 nM, substrate Dabcyl-EEVKAKVQPY-Glu(Edans)-NH2 1 μM, 120 min, 32° C.
Outline: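 Human ADAMTS4 with compound in DMSO, or DMSO control; reaction started by adding FRET substrate in reaction buffer. Fluorescence increase measured at substrate-specific wavelengths. IC50 derived from % inhibition of enzyme activity versus compound concentration.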

Chain of ADAMTS4 (O75173 213-685): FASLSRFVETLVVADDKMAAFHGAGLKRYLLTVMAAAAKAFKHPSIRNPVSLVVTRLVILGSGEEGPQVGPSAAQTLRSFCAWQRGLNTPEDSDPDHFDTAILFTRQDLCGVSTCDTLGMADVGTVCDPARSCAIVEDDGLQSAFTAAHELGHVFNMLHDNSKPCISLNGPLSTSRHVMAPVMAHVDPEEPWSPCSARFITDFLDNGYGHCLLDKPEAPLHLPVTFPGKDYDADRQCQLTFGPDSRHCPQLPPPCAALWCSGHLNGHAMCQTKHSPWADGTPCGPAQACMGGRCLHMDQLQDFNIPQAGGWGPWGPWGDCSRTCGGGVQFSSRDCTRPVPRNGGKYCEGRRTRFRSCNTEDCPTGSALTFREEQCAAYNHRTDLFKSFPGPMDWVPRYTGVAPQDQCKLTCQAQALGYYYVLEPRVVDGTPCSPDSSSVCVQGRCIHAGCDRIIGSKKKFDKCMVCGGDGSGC

First: CC(C)C1(CNC(=O)c2ccc(F)cc2-c2ccc(C(F)(F)F)cc2)NC(=O)NC1=O (single isomer, unassigned; ent-5) [Example 207, Ent-5-Fluoro-N-[(4-Isopropyl-2,5-Dioxoimidazolidin-4-Yl)Methyl]-4′-(Trifluoromethyl)[Biphenyl]-2-Carboxamide]
Second: Cc1ccc(C(=O)NCC2(C(C)C)NC(=O)NC2=O)c(-c2ccc(C(F)(F)F)cc2)c1 (racemic) [Example 202, Rac-N-[(4-Isopropyl-2,5-Dioxoimidazolidin-4-Yl)Methyl]-5-Methyl-4′-(Trifluoromethyl)[Biphenyl]-2-Carboxamide]
The IC50 of the first is higher: over 50 µM for the first, 38 µM for the second. The second is the more potent here.

Compared with `Cn1ccnc1C1(CNC(=O)c2cc(F)ccc2-c2ccc(C(F)(F)F)cc2)NC(=O)NC1=O` (single isomer, unassigned; ent-4) [Example 149, Ent-4-Fluoro-N-{[4-(1-Methyl-1H-Imidazol-2-Yl)-2,5-Dioxoimidazolidin-4-Yl]Methyl}-4′-(Trifluoromethyl)[Biphenyl]-2-Carboxamide], `Cn1ccnc1C1(CNC(=O)c2cc(F)c(F)cc2-c2ccc(C(F)(F)F)cc2)NC(=O)NC1=O` (single isomer, unassigned; ent-4) [Example 154, Ent-4,5-Difluoro-N-{[4-(1-Methyl-1H-Imidazol-2-Yl)-2,5-Dioxoimidazolidin-4-Yl]Methyl}-4′-(Trifluoromethyl)[Biphenyl]-2-Carboxamide] is 3.4-fold higher in IC50: 1.15 µM for the first, 3.95 µM for the second.

`Cc1ncsc1C1(CNC(=O)c2cc(F)ccc2-c2ccc(C(F)(F)F)cc2)NC(=O)NC1=O` (single isomer, unassigned; ent-4) [Example 11, Ent-4-Fluoro-N-{[4-(4-Methyl-1,3-Thiazol-5-Yl)-2,5-Dioxoimidazolidin-4-Yl]Methyl}-4′-(Trifluoromethyl)[Biphenyl]-2-Carboxamide] and `Cn1nccc1C1(CNC(=O)c2cc(F)ccc2-c2ccc(C(F)(F)F)cc2)NC(=O)NC1=O` (single isomer, unassigned; ent-4) [Example 178, Ent-4-Fluoro-N-{[4-(1-Methyl-1H-Pyrazol-5-Yl)-2,5-Dioxoimidazolidin-4-Yl]Methyl}-4′-(Trifluoromethyl)[Biphenyl]-2-Carboxamide] are within 1.5-fold of each other in IC50: 5.9 µM for the first, 5.37 µM for the second.

First: Cc1cn(C)nc1C1(CNC(=O)c2ccccc2-c2ccc(C(F)(F)F)nc2)NC(=O)NC1=O (racemic) [Example 35, Rac-N-{[4-(1,4-Dimethyl-1H-Pyrazol-3-Yl)-2,5-Dioxoimidazolidin-4-Yl]Methyl}-2-[6-(Trifluoromethyl)Pyridin-3-Yl]Benzamide]
Second: Cc1cn(C)nc1C1(CNC(=O)c2ccccc2-c2ccc(C(F)(F)F)cc2)NC(=O)NC1=O (stereo not drawn) [Example 70, Ent-N-{[4-(1,4-Dimethyl-1H-Pyrazol-3-Yl)-2,5-Dioxoimidazolidin-4-Yl]Methyl}-4′-(Trifluoromethyl)[Biphenyl]-2-Carboxamide]
The IC50 of the first is 2.2-fold higher: 10 µM for the first, 4.5 µM for the second. The second is the more potent here.

Going from `Cc1ccc(-c2ccccc2C(=O)NC[C@@]2(C3CC3)NC(=O)NC2=O)cn1` [Example 228, N-{[(4R)-4-Cyclopropyl-2,5-Dioxoimidazolidin-4-Yl]Methyl}-2-(6-Methylpyridin-3-Yl)Benzamide] to `O=C1NC(=O)[C@](CNC(=O)c2ccccc2-c2ccc(C(F)(F)F)c(Cl)c2)(C2CC2)N1` [Example 226, 3′-Chloro-N-{[(4R)-4-Cyclopropyl-2,5-Dioxoimidazolidin-4-Yl]Methyl}-4′-(Trifluoromethyl)[1,1′-Biphenyl]-2-Carboxamide], the IC50 rises from 20 µM to over 50 µM.

Compared with `Cn1ccnc1C1(CNC(=O)c2ccccc2-c2ccc(C(F)(F)F)nc2)NC(=O)NC1=O` (stereo not drawn) [Example 158, Ent-N-{[4-(1-Methyl-1H-Imidazol-2-Yl)-2,5-Dioxoimidazolidin-4-Yl]Methyl}-2-[6-(Trifluoromethyl)Pyridin-3-Yl]Benzamide], `Cc1cccc(C(=O)NCC2(c3nccn3C)NC(=O)NC2=O)c1-c1ccc(C(F)(F)F)cc1` (single isomer, unassigned; ent-6) [Example 133, Ent-6-Methyl-N-{[4-(1-Methyl-1H-Imidazol-2-Yl)-2,5-Dioxoimidazolidin-4-Yl]Methyl}-4′-(Trifluoromethyl)[1,1′-Biphenyl]-2-Carboxamide] is 1.9-fold lower in IC50: 3.05 µM for the first, 1.6 µM for the second.

First: O=C1NC(=O)[C@](CNC(=O)c2ccc(F)cc2-c2ccc(F)cc2)(C2CC2)N1 [Example 128, N-{[(4R)-4-Cyclopropyl-2,5-Dioxoimidazolidin-4-Yl]Methyl}-4′,5-Difluoro[Biphenyl]-2-Carboxamide]
Second: Cc1ccc(-c2ccc(F)cc2C(=O)NC[C@@]2(C3CC3)NC(=O)NC2=O)cc1 [Example 219, N-{[(4R)-4-Cyclopropyl-2,5-Dioxoimidazolidin-4-Yl]Methyl}-4-Fluoro-4-Methyl[Biphenyl]-2-Carboxamide]
The IC50 of the first is 4.6-fold higher: 13 µM for the first, 2.8 µM for the second.

`O=C1NC(=O)C(CNC(=O)c2ccc(F)cc2-c2ccc(C(F)(F)F)cc2)(c2cscn2)N1` (stereo not drawn) [Example 199, Ent-N-{[2,5-Dioxo-4-(1,3-Thiazol-4-Yl)Imidazolidin-4-Yl]Methyl}-5-Fluoro-4′-(Trifluoromethyl)[Biphenyl]-2-Carboxamide] and `O=C1NC(=O)C(CNC(=O)c2ccc(F)cc2-c2ccc(C(F)(F)F)cc2)(c2ccnn2C(F)F)N1` (racemic) [Example 262, Rac-N-({4-[1-(Difluoromethyl)-1H-Pyrazol-5-Yl]-2,5-Dioxoimidazolidin-4-Yl}Methyl)-5-Fluoro-4′-(Trifluoromethyl)[Biphenyl]-2-Carboxamide] are within 1.5-fold of each other in IC50: 16 µM for the first, 19 µM for the second.

Compared with `O=C1NC(=O)C(CNC(=O)c2ccc(F)cc2-c2ccc(Cl)cc2)(c2ccnn2C(F)F)N1` (racemic) [Example 257, Rac-4′-Chloro-N-({4-[1-(Difluoromethyl)-1H-Pyrazol-5-Yl]-2,5-Dioxoimidazolidin-4-Yl}Methyl)-5-Fluoro[Biphenyl]-2-Carboxamide], `Cn1nccc1C1(CNC(=O)c2ccc(Cl)cc2-c2ccc(C(F)(F)F)cc2)NC(=O)NC1=O` (single isomer, unassigned; ent-5) [Example 188, Ent-5-Chloro-N-{[4-(1-Methyl-1H-Pyrazol-5-Yl)-2,5-Dioxoimidazolidin-4-Yl]Methyl}-4′-(Trifluoromethyl)[Biphenyl]-2-Carboxamide] is 4-fold lower in IC50: 11 µM for the first, 2.73 µM for the second.

`Cc1ncsc1C1(CNC(=O)c2ccccc2-c2ccc(Cl)cc2)NC(=O)NC1=O` (single isomer, unassigned; ent-4) [Example 9, Ent-4′-Chloro-N-{[4-(4-Methyl-1,3-Thiazol-5-Yl)-2,5-Dioxoimidazolidin-4-Yl]Methyl}[Biphenyl]-2-Carboxamide] and `Cc1conc1C1(CNC(=O)c2ccccc2-c2ccc(C(F)(F)F)cc2)NC(=O)NC1=O` (stereo not drawn) [Example 69, Ent-N-{[4-(4-Methyl-1,2-Oxazol-3-Yl)-2,5-Dioxoimidazolidin-4-Yl]Methyl}-4′-(Trifluoromethyl)[Biphenyl]-2-Carboxamide] are within 1.5-fold of each other in IC50: 4.8 µM for the first, 4.9 µM for the second.

Compared with `Cn1ccc(C2(CNC(=O)c3ccc(F)c(F)c3-c3ccc(C(F)(F)F)cc3)NC(=O)NC2=O)n1` (racemic) [Example 307, Rac-5,6-Difluoro-N-{[4-(1-Methyl-1H-Pyrazol-3-Yl)-2,5-Dioxoimidazolidin-4-Yl]Methyl}-4′-(Trifluoromethyl)[Biphenyl]-2-Carboxamide], `Cc1cnoc1C1(CNC(=O)c2ccccc2-c2ccc(C(F)(F)F)cc2)NC(=O)NC1=O` (stereo not drawn) [Example 88, Ent-N-{[4-(4-Methyl-1,2-Oxazol-5-Yl)-2,5-Dioxoimidazolidin-4-Yl]Methyl}-4′-(Trifluoromethyl)[Biphenyl]-2-Carboxamide] is 2.5-fold lower in IC50: 23 µM for the first, 9.1 µM for the second. The second is the more potent here.

First: O=C1NC(=O)C(CNC(=O)c2ccc(F)cc2-c2ccc(C(F)(F)F)cc2)(C23CC(F)(C2)C3)N1 (single isomer, unassigned; ent-5) [Example 294, Ent-5-Fluoro-N-{[4-(3-Fluorobicyclo[1.1.1]Pentan-1-Yl)-2,5-Dioxoimidazolidin-4-Yl]Methyl}-4′-(Trifluoromethyl)[Biphenyl]-2-Carboxamide]
Second: O=C1NC(=O)C(CNC(=O)c2cccc(F)c2-c2ccc(C(F)(F)F)cc2)(C2(F)CC2)N1 (racemic) [Example 299, Rac-6-Fluoro-N-{[4-(1-Fluorocyclopropyl)-2,5-Dioxoimidazolidin-4-Yl]Methyl}-4′-(Trifluoromethyl)[Biphenyl]-2-Carboxamide]
The IC50 of the first is 1.9-fold higher: 37 µM for the first, 19 µM for the second. The second is the more potent here.

Compared with `O=C1NC(=O)C(CNC(=O)c2ccc(F)cc2-c2ccc(Cl)cc2)(C2CC(F)(F)C2)N1` (racemic) [Example 245, Rac-4′-Chloro-N-{[4-(3,3-Difluorocyclobutyl)-2,5-Dioxoimidazoidin-4-Yl]Methyl}-5-Fluoro[Biphenyl]-2-Carboxamide], `Cc1ccc(-c2cc(C(F)(F)F)ccc2C(=O)NC[C@@]2(C3CC3)NC(=O)NC2=O)cc1` [Example 99, N-{[(4R)-4-Cyclopropyl-2,5-Dioxoimidazolidin-4-Yl]Methyl}-4′-Methyl-5-(Trifluoromethyl)[Biphenyl]-2-Carboxamide] is lower in IC50: over 50 µM for the first, 4.5 µM for the second.

Compared with `Cc1ccc(-c2cc(Cl)ccc2C(=O)NCC2(c3nccn3C)NC(=O)NC2=O)cc1` (single isomer, unassigned; ent-5) [Example 153, Ent-5-Chloro-4′-Methyl-N-{[4-(1-Methyl-1H-Imidazol-2-Yl)-2,5-Dioxoimidazolidin-4-Yl]Methyl}[Biphenyl]-2-Carboxamide], `COc1ccc(C(=O)NC[C@@]2(C3CC3)NC(=O)NC2=O)c(-c2ccc(C3CC3)cc2)c1` [Example 103, 4′-Cyclopropyl-N-{[(4R)-4-Cyclopropyl-2,5-Dioxoimidazolidin-4-Yl]Methyl}-5-Methoxy[Biphenyl]-2-Carboxamide] is 14-fold higher in IC50: 0.51 µM for the first, 7.1 µM for the second.

Compound `O=C1NC(=O)[C@](CNC(=O)c2ccc(C(F)(F)F)cc2-c2ccc(C3CC3)cc2)(C2CC2)N1` [Example 108, 4′-Cyclopropyl-N-{[(4R)-4-Cyclopropyl-2,5-Dioxoimidazolidin-4-Yl]Methyl}-5-(Trifluoromethyl)[Biphenyl]-2-Carboxamide] has an IC50 of 19 µM.

— patent US12398120B2, “Substituted hydantoinamides as ADAMTS7 antagonists” (BAYER AKTIENGESELLSCHAFT, priority 2019, dated 2025)
